Data published in article PMC12390684 (Viruses, 2025).

Each compound was assayed against IN-GCN2 interaction (6xHis-IN / GST-GCN2) (UniProt P04585+Q9P2K8) (assay: biochemical). Conditions: screen, 100 µM; inactive = within 10% of the DMSO control.
Type: binding, HIV-1 IN; human GCN2

IN-GCN2 interaction (6xHis-IN / GST-GCN2), sequence (Q9P2K8 192-1024, other chains not shown): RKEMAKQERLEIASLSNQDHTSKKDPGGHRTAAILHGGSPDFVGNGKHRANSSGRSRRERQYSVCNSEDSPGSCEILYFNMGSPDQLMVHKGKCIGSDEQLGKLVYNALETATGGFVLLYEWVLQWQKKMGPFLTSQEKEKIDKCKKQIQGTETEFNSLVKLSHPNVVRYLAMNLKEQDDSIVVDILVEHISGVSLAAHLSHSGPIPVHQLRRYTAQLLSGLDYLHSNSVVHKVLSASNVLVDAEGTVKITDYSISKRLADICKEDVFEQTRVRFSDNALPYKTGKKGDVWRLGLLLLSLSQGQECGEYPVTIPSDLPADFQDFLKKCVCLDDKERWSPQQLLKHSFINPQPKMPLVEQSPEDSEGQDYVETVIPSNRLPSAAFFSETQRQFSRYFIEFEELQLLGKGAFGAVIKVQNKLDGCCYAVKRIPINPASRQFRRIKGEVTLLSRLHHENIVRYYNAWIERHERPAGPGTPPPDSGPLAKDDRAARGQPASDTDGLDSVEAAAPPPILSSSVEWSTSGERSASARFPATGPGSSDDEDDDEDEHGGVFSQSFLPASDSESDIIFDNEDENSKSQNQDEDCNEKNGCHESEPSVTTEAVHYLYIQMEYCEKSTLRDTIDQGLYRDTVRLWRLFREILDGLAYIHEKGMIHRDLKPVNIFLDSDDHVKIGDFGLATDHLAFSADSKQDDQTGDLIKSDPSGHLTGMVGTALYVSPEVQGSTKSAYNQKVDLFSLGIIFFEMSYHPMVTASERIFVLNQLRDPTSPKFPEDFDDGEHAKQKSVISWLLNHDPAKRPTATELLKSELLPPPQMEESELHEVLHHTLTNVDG

SMILES	effect on IN-GCN2 interaction in the screen, in words
COc1ccc2c(c1OC)CN1CCc3cc4c(cc3C1C2)OCO4 (stereo not drawn) [NSC36351]	inactive

Same assay, conditions: screen, single dose 100 µM, single replicate; residual AlphaLISA signal normalized to DMSO control

SMILES	IN-GCN2 interaction (%)
C=C1C(=O)O[C@H]2[C@H]1[C@H](OC(=O)/C(C)=C\C)C[C@]1(CO1)[C@@H]1[C@H](OC(C)=O)C=C(C)[C@]21O [NSC104943]	118.84
C/C=C/c1cc2c(c(=O)o1)C(=O)[C@@H](O)[C@H](C)O2 [NSC118343]	125.37
CC(=O)OC1C2(CC3N4C(=O)C5(CO)SSC4(CC31O)C(=O)N5C)OC(C)C(C)(C)C2=O (stereo not drawn) [NSC294408]	104.55
O=c1cccc2n1C[C@H]1C[C@@H]2CN2CCCC[C@@H]12 [NSC21725]	90.50
COc1cc2c(c(OC)c1OC)-c1ccc(OC)c(=O)cc1[C@@H](NC(=O)c1ccccc1)CC2 [NSC33410]	67.25
COC(=O)c1nc(-c2ccc3c(n2)C(=O)C(N)=C(OC)C3=O)c(N)c(-c2ccc(OC)c(OC)c2O)c1C [NSC45384]	82.84
COc1ccc2c(c1OC)-c1c(OC)c(OC)cc3c1[C@H](C2)N(C)CC3 [NSC785146]	58.90
COC(=O)[C@@H]1[C@H](O)[C@H](C)[C@H](O)[C@H](C)/C=C\C=C(/C)C(=O)Nc2c(C)c(OC(C)=O)c3c(c2O)C(=O)C(C)=C2OCOC(=C23)/C(C)=C/[C@@](C)(O)[C@H](O)[C@@H](C)[C@H]1O [NSC19990]	69.46
C[C@@H](N)C(=O)NC(CO)C(O)C(N)C=O.Cl (stereo partly drawn) [NSC278619]	77.59
CC[C@H]1OC(=O)[C@H](C)[C@@H](O[C@H]2C[C@@](C)(O)[C@@H](O)[C@H](C)O2)[C@H](C)[C@@H](O)[C@](C)(O)C[C@@H](C)C(=O)[C@H](C)[C@@H](O)[C@H]1C [NSC209870]	103.21
C[C@@H]1[C@H](O)[C@@H](C)/C=C/C=C/CC/C=C/C=C/C=C/C=C/C(O[C@H]2O[C@H](C)[C@@H](O)[C@H](N)[C@@H]2O)CC2O[C@](O)(CC(O)C(O)CCC(O)CC(O)CC(O)CC(=O)O[C@H]1C)CC(O)C2C(=O)O (stereo partly drawn) [NSC150817]	68.70
CC(C)=CC(=O)O[C@H]1[C@H]2[C@H](OC(=O)[C@H]2C)[C@H](O)[C@@H](C)[C@@H]2C=CC(=O)[C@]21C [NSC176503]	99.27
COc1cc2c(cc1OC)C(OC)N(C)c1c-2ccc2cc3c(cc12)OCO3 (stereo not drawn) [NSC146396]	90.77
COc1ccc([C@@H]2CC(=O)c3c(O)cc(O[C@@H]4O[C@H](CO[C@@H]5O[C@@H](C)[C@H](O)[C@@H](O)[C@H]5O)[C@@H](O)[C@H](O)[C@H]4O)cc3O2)cc1O [NSC31048]	142.54
COc1cc2c3c(c1O)Oc1ccc(cc1)C[C@@H]1c4c(cc(OC)c(OC)c4Oc4ccc(cc4)C[C@@H]3N(C)CC2)CCN1C [NSC785173]	45.72
COC1=C(N)C(=O)c2nc(-c3nc(C(=O)O)c(C)c(-c4ccc(OC)c(OC)c4O)c3N)ccc2C1=O [NSC45383]	84.72
CC1(C)Oc2cc3oc(=O)ccc3c3c2C2C1CCC(C)(O3)C2O (stereo not drawn) [NSC83433]	78.75
CO[C@H]1C[C@@H]2CC[C@@H](C)[C@@](O)(O2)C(=O)C(=O)N2CCCC[C@H]2C(=O)O[C@H]([C@H](C)C[C@@H]2CC[C@@H](O)[C@H](OC)C2)CC(=O)[C@H](C)/C=C(\C)[C@@H](O)[C@@H](OC)C(=O)[C@H](C)C[C@H](C)/C=C/C=C/C=C/1C [NSC226080]	54.18
COc1ccc(CC2=NCCc3cc(OC)c(OC)cc32)cc1OC.O=C(O)C(=O)O [NSC35550]	110.36
C[C@@H]1CC[C@H]2[C@@H](C)C(=O)O[C@@H]3O[C@@]4(C)CC[C@@H]1[C@]32OO4 [NSC369397]	101.56
COc1cc2c(c(O)c1OC)C[C@H]1c3c(c(OC)c4c(c3-2)OCO4)CCN1C [NSC785163]	34.56
O=C1CC=C2C3CC4N(CCC45c4ccccc4N1C25)C/C3=C\CO (stereo not drawn) [NSC99791]	109.54
COc1cc2c3c(c1OC)-c1cc4c(cc1C[C@@H]3N(C)CC2)OCO4 [NSC785161]	55.76
COc1cccc2c1[C@H](CO)N1[C@H](C#N)[C@@H]3C[C@H](C(=O)O)[C@@H]([C@@H]1C2)N3C [NSC607097]	110.01
COc1cc2c(cc1OC)C(=O)Cc1ccc3c(c1CN(C)CC2)OCO3 [NSC32984]	91.01
CO[C@@H]1/C=C/C=C(\C)Cc2cc(O)c(Cl)c(c2)N(C)C(=O)C[C@H](OC(=O)C(C)C)[C@]2(C)O[C@H]2[C@H](C)[C@@H]2C[C@@]1(O)NC(=O)O2 [NSC314018]	97.15
C[C@]12C(=O)C=CCC1=CC[C@@H]1[C@@H]2CC[C@]2(O)C(=O)O[C@@]3(C)[C@H]4C[C@]5(C)[C@@H](CO[C@@]16O[C@@]32[C@H]5C6=O)C(=O)O4 [NSC287088]	131.80
C=C(NC(=O)C(=C)NC(=O)c1csc(C2=N[C@@H]3c4csc(n4)[C@H]4NC(=O)c5csc(n5)[C@H]([C@](C)(O)[C@@H](C)O)NC(=O)[C@H]5CSC(=N5)/C(=C/C)NC(=O)[C@H]([C@@H](C)O)NC(=O)c5csc(n5)[C@]3(CC2)NC(=O)[C@H](C)NC(=O)C(=C)NC(=O)C(=C)NC(=O)[C@H](C(C)C)N[C@@H]2C=Cc3c([C@H](C)O)cc(nc3[C@H]2O)C(=O)O[C@@H]4C)n1)C(N)=O [NSC285116]	79.00

SMILES	IN-GCN2 interaction (%)
COc1cc2c3c(c1OC)-c1ccccc1C[C@H]3N(C)CC2 [NSC785145]	66.76
COC(=O)c1ccc(O)c2nc3c(C=O)c(O)cc(O)c3nc12 [NSC106995]	28.53
O=C1C[C@@H]2OCC=C3CN4CC[C@]56c7ccccc7N1[C@H]5[C@H]2[C@H]3C[C@]46O [NSC99792]	109.08
CC1(C)C[C@]23[C@@H]4COC(=O)[C@H]2CC[C@H]1[C@@H]3CC4=O [NSC284437]	100.65
COc1ccc(CC2C(=O)NC(C)C(=O)N(C)C3C(=O)N(C)C(Cc4ccc(O)c(c4)Oc4ccc(cc4)C3O)C(=O)NC(C)C(=O)NC(C)C(=O)N2C)cc1 (stereo not drawn) [NSC259968]	109.81
COc1c(OC)c2c3c(nccc3c1OC)C(=O)c1cc(O)ccc1-2 [NSC785143]	30.28
CC1(C)C(=O)N2c3ccccc3C3(CC(N4C(=O)c5ccccc5C4=O)C(=O)O3)C2N1C(=O)OCc1ccccc1 (stereo not drawn) [NSC382796]	53.34
CC(C)(O)[C@@H]1[C@H]2OC(=O)[C@@H]1[C@]1(O)C[C@H]3O[C@]34C(=O)O[C@H]2[C@]14C [NSC129536]	112.62
CC1(C)CCC2=C(O1)c1ccccc1C(=O)C2=O [NSC26326]	107.59
C=C1C(=O)OC2CCN3CC=C(COC(=O)C(C)(O)C4(CO4)C1C)C23 (stereo not drawn) [NSC129230]	110.22
O=C1CC(c2ccccc2)Oc2ccccc21 (stereo not drawn) [NSC50393]	103.95
COc1ccc2c(c1OC)CN1CCc3cc4c(cc3C1C2)OCO4 (stereo not drawn) [NSC36351]	108.61
CO[C@@H]1[C@H](O)C[C@@H](O[C@H]2[C@@H](C)O[C@@H](Oc3cc(O)c4c(O)c5c(cc4c3)C[C@@H]([C@H](OC)C(=O)[C@@H](O)[C@@H](C)O)[C@H](O[C@H]3C[C@@H](O[C@H]4C[C@@H](O[C@H]6C[C@](C)(O)[C@@H](OC(=O)C(C)C)[C@H](C)O6)[C@H](O)[C@@H](C)O4)[C@H](O)[C@@H](C)O3)C5=O)C[C@H]2OC(C)=O)O[C@@H]1C [NSC38270]	113.18
CNC[C@H](O)c1ccc(O)c(O)c1 [NSC62786]	108.20
CC[C@H]1CN2CCc3cc(OC)c(OC)cc3[C@@H]2C[C@@H]1C[C@H]1NCCc2cc(O)c(OC)cc21 [NSC32944]	81.67
CN1CCc2cc3c(cc2[C@H]1[C@@H]1OC(=O)c2c1ccc1c2OCO1)OCO3 [NSC32192]	122.62
CC(C)c1ccc2c(c1)CC[C@H]1[C@](C)(C(=O)O)CCC[C@]21C [NSC2952]	107.26
CCOC(=O)CCCCCCCCCCCCC1C=CCC1 (stereo not drawn) [NSC38010]	104.59
COC1=C2CC(C)CC(OC)C(O)C(C)/C=C(\C)C(OC(N)=O)C(OC)/C=C\C=C(/C)C(=O)NC(=C(/C=N/N3CCOCC3)C1=O)C2=O (stereo not drawn) [NSC255112]	78.82
C[N+]1(C)C2CC(OC(=O)C(CO)c3ccccc3)CC1C1OC12 (stereo not drawn) [NSC61809]	93.88
CC(=O)C1CCCC(=O)/C=C/C(=O)O1 (stereo not drawn) [NSC180515]	108.07
CO[C@H]1[C@@H](O)[C@@H](C)O[C@@H](OC2CCC3(C)C(CCC4C3C(O)CC3(C)C(C5=CC(=O)OC5)CCC43O)C2)[C@@H]1O (stereo partly drawn) [NSC123977]	127.41
NC(Cc1cc(I)c(O)c(I)c1)C(=O)O (stereo not drawn) [NSC4143]	75.41
C=C1C(=O)OC2CC1C(O)C/C(C)=C/CC/C(C)=C/C(O)CC2C (stereo not drawn) [NSC210236]	107.44
O=C(O)CC1OCC=C2CN3CCC45c6ccccc6NC4C1C2CC35 (stereo not drawn) [NSC121860]	104.59
CO[C@@]12[C@H](COC(N)=O)C3=C(C(=O)C(C)=C(N)C3=O)N1C[C@H]1[C@@H]2N1C (stereo partly drawn) [NSC56410]	73.33
COC(=O)C1=CO[C@@H](C)[C@@H]2CN3CCc4c([nH]c5cc(OC)ccc45)[C@@H]3C[C@H]12 [NSC15624]	43.70

Same assay, conditions: screen, single dose 100 µM, single replicate; residual AlphaLISA signal normalized to DMSO control; listed as 63701

SMILES	IN-GCN2 interaction (%)
N#Cc1cn([C@@H]2O[C@H](CO)[C@@H](O)[C@H]2O)c2ncnc(N)c12 [NSC63701]	116.97

Same assay, conditions: screen, single dose 100 µM, single replicate; residual AlphaLISA signal normalized to DMSO control; listed as 94600

SMILES	IN-GCN2 interaction (%)
CC[C@@]1(O)C(=O)OCc2c1cc1n(c2=O)Cc2cc3ccccc3nc2-1 [NSC94600]	48.96

Same assay, conditions: screen, single dose 100 µM, single replicate; residual AlphaLISA signal normalized to DMSO control; listed as 785147

SMILES	IN-GCN2 interaction (%)
COc1c(O)ccc2c1-c1c3c(cc4c1[C@H](C2)N(C)CC4)OCO3 [NSC785147]	67.05

Same assay, conditions: screen, single dose 100 µM, single replicate; residual AlphaLISA signal normalized to DMSO control; listed as 785182

SMILES	IN-GCN2 interaction (%)
COc1c(O)ccc2c1-c1c3c(cc4c1[C@H](C2)N(C)CC4)OCO3 [NSC785182]	74.81
